# Reference: patent US8173695B2, “Kappa selective opioid receptor antagonist” (Eli Lilly and Company, priority 2008, dated 2012)
# “And” between values parts separate entries of the source, which are not always exact repeats. Equal values may be shown once.
# Assays:
# Male Fischer F-344 rats = assay: Stress-induced hyperthermia (in rat); assay type: in vivo; conditions: for stress-induced hyperthermia (T2−T1): in °C
# Male NIH-Swiss mice = assay: Mouse forced swim test; assay type: in vivo; conditions: for immobility in mouse forced swim test, Mean: 30 min
# Excerpt: This test evaluates the effect of test compound on mice mobility as a measure of antidepressant effect. The less immobility compared to vehicle, the more pronounced the antidepressant-like effect.
# Male, NIH-Swiss mice (25-30 g) (Harlan Sprague-Dawley, Indianapolis, Ind., USA) are housed in a vivarium for at least one week prior to use with water and rodent chow freely available during this acclimation period. Animals are removed from the vivarium to the testing area in their home cages and allowed to adapt to the new environment for at least one hour before testing.
# Mice are placed in clear plastic cylinders (diameter: 10 cm; height: 25 cm) filled with 6 cm of water (22-25° C.) for six minutes. The duration of immobility during the last four minutes of the six minutes test period is scored. A mouse is recorded as immobile when floating motionless or making only those movements necessary to keep its head above water.
# The test compound is administered p.o. 1 hour prior to testing at 1.0 mg/kg, 3.0 mg/kg and 10.0 mg/kg, n of 8 per group in a vehicle of 5 ml of sterile water and 30 ml of diluted (10×) lactic acid. Imipramine is evaluated as a positive control, 15 mg/kg: p, 30 min. prior to testing n of 4.
# A second study is carried out evaluating 1 and 3 mg/kg doses of the compound of Example 1A alone and in combination with 5 mg/kg of imipramine. Imipramine alone is evaluated at 5 and 15 mg/kg doses and a vehicle control is included in the study. For the combination studies, the compound of Example 1A is administered p.o. 30 minutes prior to administration of imipramine i.p. and the test initiated 30 minutes following imipramine administration. An n of 8 per group is evaluated for all groups. For the evaluations of the compound of Example 1A alone, testing is initiated 60 minutes following administration and testing of imipramine only treated animals is initiated 30 minutes following administration.
# Sprague Dawley rats = assay: Prepulse inhibition, reversal of morphine induced disruption of PPI; assay type: in vivo, rat; conditions: vehicle/20 mg/kg morphine sc; 20 mg/kg
# [1] = Study 1, positive control 10 mg/kg
smiles,measurement,setting,value
"CNC1=Nc2ccc(Cl)cc2C(c2ccccc2)=[N+]([O-])C1 [CDP, chlordiazepoxide, reference compound]",stress-induced hyperthermia (T2−T1),"Male Fischer F-344 rats; Study 2, 1 mg/kg CDP alone, po",0.75±0.06
"CN(C)CCCN1c2ccccc2CCc2ccccc21 [Imipramine, imipramine, reference compound]","immobility in mouse forced swim test, Mean",Male NIH-Swiss mice; Imipramine 5 mg/kg i.p.,161.94 s
same,"immobility in mouse forced swim test, Mean",Male NIH-Swiss mice; Imipramine 15 mg/kg i.p.,61.70 s
same,"antidepressant effect, in words","Male NIH-Swiss mice; imipramine 15 mg/kg, over vehicle control, p<0.05",statistically significant antidepressant effect
"Cc1nc(C#Cc2cccnc2)cs1 [MTEP, 3-[(2-methyl-1,3-thiazol-4-yl)ethynyl]pyridine, reference compound]",baseline body temperatures,Male Fischer F-344 rats; [1],without affecting
same,"reduction in stress-induced hyperthermia, in words","Male Fischer F-344 rats; Study 1, positive control 10 mg/kg, p<0.05",significantly reduces
same,stress-induced hyperthermia (T2−T1),Male Fischer F-344 rats; [1],0.42±0.09
"CN1CC[C@]23c4c5ccc(O)c4O[C@H]2[C@@H](O)C=C[C@H]3[C@H]1C5 [morphine, reference compound]","% Inhibition (PPI), individual rats",Sprague Dawley rats,26.99% and −12.64% and 34.65% and 32.59% and 5.49% and 49.11% and 53.95% and 44.81% and 35.01% and −9.49% and 51.85% and 24.04% and 4.72% and 50.03%
